The values below come from patent EP1107982B1, “[…] COMPLEXES OF 1,2-(CIS)-DIOL CYCLIC PEPTIDES” (Eli Lilly & Company, priority 1998, dated 2000).

The structures appear in SMILES notation. *1 amine or outer side, *2 acyl side, *3 side chain or, on linkers, in order; H or OH if unused. Where a SMILES comes first, the peptide text is derived from it. Bridges are numbered along the chain shown (N, C = ends). [ ]: non-standard residue; d: D form. The star is where a group is joined. pTerphenylCO(4''-OnC5H11) = CCCCCOc1ccc(-c2ccc(-c3ccc(C(=O)*)cc3)cc2)cc1; Orn(4R-OH,5R-OH) = O=C([C@H](C[C@@H](O)[C@@H](O)N[*:3])N[*:1])[*:2]; hTyr(3S-OH,4S-OH) = N[C@H](C(=O)O)[C@H](O)[C@@H](O)c1ccc(O)cc1; Pro(3S-OH,4S-Me) = C[C@H]1CN[C@H](C(=O)O)[C@H]1O; Hyp = O=C(O)[C@@H]1C[C@@H](O)CN1

A short description of series [1]: Stability of Compound C1 in m-APBA at alkaline pH (HPLC main peak purity). In kind it is physicochemical. Here is the method:
(§1) Unless indicated otherwise, all chemicals can be acquired from commercial sources (i.e., Aldrich Chemical, Sigma, etc.) in reagent grade or better. Centrifugation was performed using an IEC benchtop clinical centrifuge equipped with six-place swinging-bucket rotor (for samples > 1.5 ml) and an Eppendorf tabletop centri fuge model 5415C equipped with standard 18-place rotor (for samples ≤ 1.5 ml). HPLC analyses were performed using a Hewlett Packard Liquid Chromatograph Model 1090 equipped with a 0.46 x 25 cm Zorbax™ SB-C8 column. All injections were 10 µl, followed by gradient elution from 40-100% acetonitrile (AcN) over 25 minutes and UV detection at 280 nm. Unless otherwise stated, samples were diluted in 0.25 N acetic acid/AcN prior to injection to facilitate decomplexation and ensure solubility in the HPLC solvent system. All alkaline pH adjustments were made by addition of a 1:1 mixture of ammonium hydroxide and 50% sodium hydroxide. Measurements were taken with a Beckman φ40 pH meter calibrated with pH 7 and pH 10 standards.
Compound C1 was suspended at 100 mg/ml (65% potency: 65 mg/ml (57 mM) in either 250 mM m-APBA or water (control). Separate samples were adjusted to pH 8.0, 8.5, 9.0, 9.5 and 10.0. Aliquots for time-point analysis were removed and diluted 100-fold in 100 mM acetic acid/methanol prior to HPLC injection. Stability was assessed by analysis of main peak purity, since degradation products are known to elute within the HPLC chromatographic window.

The nature of series [2]: Solubility of Compound C1 in the presence of m-APBA (suspension, centrifugation, HPLC of supernatant). In kind it is physicochemical. Particulars: for appearance of aqueous solution: 30 mg/ml. Here is the method: as §1
Crude C1 was suspended at 50 mg/ml (65% potency: 32.5 mg/ml, or 28.5 mM) in 4 ml of either 100 mM m-APBA or 100 mM ammonium bicarbonate (control) at pH 5.0 and pH 9.0. The samples were stirred at room temperature for 2 hours, at which time aliquots were removed and assayed both before and after centrifugation for five minutes at […]. All samples were diluted 50-fold prior to HPLC analysis.
At low pH (≤ 8.0), solid suspensions of Compound C1 in m-APBA and in ammonium bicarbonate were visually identical. Both were opaque and contained varying amounts of solid, insoluble material. However, when the pH was adjusted to 9.0 dramatic differences in appearance between the two samples was observed within approximately 30 minutes. The aqueous ammonium bicarbonate control was beige in color and completely opaque; whereas, the sample containing m-APBA turned a transparent, dark brown. When the mixtures were subjected to centrifugation for 5 minutes at 16,000 x g and the resulting supernatants quantified by HPLC analysis, the concentration of C1 present in the m-APBA supernatant was 23.76 mg/ml (94% of that in the original suspension) and only 2.27 mg/ml (10% of the original suspension) was present in the ammonium bicarbonate control supernatant.

Setting [3] is: m-APBA replaced with boric acid (borate complex).

As for `CCCCCOc1ccc(-c2ccc(-c3ccc(C(=O)N[C@H]4C[C@@H](O)[C@@H](O)NC(=O)[C@@H]5[C@@H](O)[C@@H](C)CN5C(=O)[C@H]([C@@H](C)O)NC(=O)[C@H]([C@H](O)[C@@H](O)c5ccc(O)cc5)NC(=O)[C@@H]5C[C@@H](O)CN5C(=O)[C@H]([C@@H](C)O)NC4=O)cc3)cc2)cc1` [Compound C1] ({pTerphenylCO(4''-OnC5H11)}-[Orn(4R-OH,5R-OH)]T[Hyp][hTyr(3S-OH,4S-OH)]T[Pro(3S-OH,4S-Me)]; lactam 1-C), the “purity (main peak)” value in series [1] (250 mM m-APBA, pH 9.5, after 17 hours) is listed as greater than 70%. Further, in series [1] (aqueous control (water), pH 9.5, after 9 hours), the “purity (main peak, of the total peak area)” value is “less than 70%”. The “chemical stability in comparison to the aqueous control” value in series [1] (in the presence of m-APBA, alkaline pH) is “enhanced chemical stability”. In addition, the stability of complex result is listed as “very stable” in series [1] (setting [3]) and “did not appear to be as stable” in series [1] (p-carboxyphenylboronic acid used instead of m-APBA). Further, in series [2] (100 mM ammonium bicarbonate control, pH 9.0), the “concentration in supernatant as % of the original suspension” value was found to be 10%. The solubility thermodynamic at 2 h in series [2] (100 mM ammonium bicarbonate control, pH 9.0, room temperature, crude C1 suspended at 50 mg/ml (32.5 mg/ml), after centrifugation, read-out: concentration of C1 present in the supernatant) stood at 2270 µg/mL. Further, the “concentration in supernatant as % of that in the original suspension” value in series [2] (100 mM m-APBA, pH 9.0) is 94%. For the same molecule, in series [2] (100 mM m-APBA, pH 9.0, room temperature, crude C1 suspended at 50 mg/ml (32.5 mg/ml), after centrifugation), the “concentration of C1 present in the supernatant” value is 23760 µg/mL. Besides, the “appearance of aqueous solution” value in series [2] (boronate complex) was “transparent solution”; in series [2] (non-complexed) it was “opaque slurry”. Further, in series [2] (in the presence of m-aminophenyl boronic acid at pH 9.0 in aqueous solution), the increase in solubility was 10 fold. Further, the solubility of complex result in series [2] (setting [3]) and in series [2] (m-APBA replaced with p-carboxyphenyl boronic acid (boronate complex)) was “increased solubility” each time.
